Patent publication US7897401B2, “Control of apoptosis by controlling the propensity of ceramide channel formation” (University of Maryland, College Park, priority 2005, dated 2011)

What was measured:
[1] = tested on: ceramide channels; experiment: Screening for influence on ceramide channel formation in liposomes or planar membranes; assay type: biochemical
Description: In one embodiment, such methods comprise screening compounds for their ability to influence the formation of ceramide channels in liposomes or planar membranes. […] Such liposomes or planar membranes can be produced using any of a variety of lipids. Preferably, however, the constituents of the liposomes or planar membranes will be selected to mimic those of the MOM, or to have relevance to such membranes (see, Weissig, V. et al. (2006) “LIPOSOMES AND LIPOSOME-LIKE VESICLES FOR DRUG AND DNA DELIVERY TO MITOCHONDRIA,” J. Liposome Res. 16(3):249-264; Torchilin, V. P. (2006) “RECENT APPROACHES TO INTRACELLULAR DELIVERY OF DRUGS AND DNA AND ORGANELLE TARGETING,” Annu. Rev. Biomed. Eng. 8:343-375; Elrick, M. J. et al. (2006) “SPHINGOSINE, A PRODUCT OF CERAMIDE HYDROLYSIS, INFLUENCES THE FORMATION OF CERAMIDE CHANNELS,” Biophys. J. 1; 91(5):1749-1756; Bathori, G. et al. (2006) “CA2+-DEPENDENT CONTROL OF THE PERMEABILITY PROPERTIES OF THE MITOCHONDRIAL OUTER MEMBRANE AND VOLTAGE-DEPENDENT ANION-SELECTIVE CHANNEL (VDAC),” J. Biol. Chem. 281(25):17347-17358; Stiban, J. et al. (2006) “DIHYDROCERAMIDE HINDERS CERAMIDE CHANNEL FORMATION: IMPLICATIONS ON APOPIOSIS,” Apoptosis 11(5):773-780; Stover, T. C. et al. (2005) “SYSTEMIC DELIVERY OF LIPOSOMAL SHORT-CHAIN CERAMIDE LIMITS SOLID TUMOR GROWTH IN MURINE MODELS OF BREAST ADENOCARCINOMA,” Clin. Cancer Res. 11(9):3465-3474).

[2] = tested on: ceramide channels in the MOM of rat liver mitochondria; experiment: Complex IV accessibility assay (cytochrome c oxidation), isolated rat liver mitochondria; assay type: biochemical; conditions: radiolabeled ceramide, rat liver mitochondria, FIG. 12
Description: The amount of ceramide that needs to be added to mitochondria to achieve permeabilization of the MOM to proteins is high compared to physiological levels. However, it is not the absolute ceramide concentration in solution that is important, but rather the concentration of ceramide in the membrane. In addition, only a small percentage of the ceramide added to the solution actually inserts into the membrane. This issue was directly addressed by using radiolabeled ceramide and simultaneously measuring how much ceramide inserts into rat liver mitochondria and how much permeabilization is achieved in the MOM by measuring the accessibility of exogenously added cytochrome c. […] Levels measured in mitochondria in the early stages of apoptosis are 4 pmoles per nmole. Thus, the results are well within the physiological range. Note that after correcting for the membrane partitioning, long and short-chain ceramide have equal potency as expected from the model of the ceramide channel.
The ability of the naturally-occurring C16-ceramide to form channels in the mitochondrial outer membranes of isolated yeast mitochondria was assessed via the complex IV accessibility assay. This assay measures the bidirectional flux of cytochrome c across the mitochondrial outer membrane (MOM) by monitoring its oxidation by complex IV of the mitochondrial inner membrane electron transport chain. The initial rate of cytochrome c oxidation when expressed as a percent of the rate measured in mitochondria with damaged outer membranes is a good measure of the permeability of the MOM to proapoptotic proteins. This method has an advantage over simply looking for the release of cytochrome c because both channel prevention and reversal by a potential inhibitor can be evaluated.
Thus, mitochondria are isolated from wild type yeast and yeast strains expressing either human Bcl-2 or Bcl-xL according to previously published methods (Lee, A. et al. (1998) “THE ROLE OF YEAST VDAC GENES ON THE PERMEABILITY OF THE MITOCHONDRIAL OUTER MEMBRANE,” J. Membr. Biol. 161:173-181). Isolated yeast mitochondria are incubated with the naturally occurring C16-ceramide and its ability to form channels is evaluated according to the complex IV accessibility assay (Siskind, L. J. et al. (2002) “CERAMIDE CHANNELS INCREASE THE PERMEABILITY OF THE MITOCHONDRIAL OUTER MEMBRANE To SMALL PROTEINS,” J. Biol. Chem. 277:26796-26803). This assay measures the CN-sensitive oxidation of exogenously-added reduced cytochrome c by cytochrome c oxidase of the inner membrane. […] Mitochondria are incubated with test agents (e.g., C16-ceramide) for a predetermined period of time (e.g., 5-20 minutes), reduced cytochrome c is added and the absorbance is monitored at 550 nm. […]

[3] = tested on: erythrocytes; experiment: Permeabilization of erythrocytes (osmolytes of varying molecular weight); assay type: cell-based

| Molecule | concentration exhibiting potent inhibitory effects on ceramide channels [1] | ceramide inserted sufficient to permeabilize the outer membrane to cytochrome c [2] | ceramide:phospholipids ratio needed to permeabilize an erythrocyte membrane relative to MOM [3] |
| --- | --- | --- | --- |
| OC[C@H]1O[C@H](O[C@H]2O[C@H](CO)[C@@H](O)[C@H](O)[C@H]2O)[C@H](O)[C@@H](O)[C@@H]1O [trehalose] | 50 mM |  |  |
| ceramide |  | 2 pmoles per nmole of phospholip | 20 fold |
